Source: article PMC11357992, “Non-invasive mapping of systemic neutrophil dynamics upon cardiovascular injury” (Nature Cardiovascular Research, 2023)
Several values for one entry are separate records, joined by “and”; a condition that tells them apart may be missing. Identical values can stand only once. Where no end group is shown, it is not given here. Side-chain parts run from the residue outwards. rhodamine‑labelled PEGylated perfluoro‑15‑crown‑5 ether nanoemulsion = not defined here; carboxyfluorescein = N-terminal fluorescence label (CF)

Assays:
[1] = tested on: neutrophils, monocytes and lymphocytes from STEMI blood samples; assay: Uptake of hNPPFCs/ConPFCs by immune cells from patients with STEMI, flow cytometry; assay type: cell-based, human
Experimental: In total, blood samples from 17 patients with STEMI were used (5 female, 12 male; aged 66.9 ± 13.6 years; troponin T, 3,398 ± 3,520 ng l^−1; creatine kinase, 933.4 ± 685.8 U l^−1; lactate dehydrogenase, 547.8 ± 259.9 U l^−1). Samples were analyzed 24 h after MI. Samples from the oral cavity of patients with pericoronitis (n = 6; 4 female, 2 male; 34.1 ± 21.7 years) and explanted human hearts (n = 3; 1 female, 2 male; 41.6 ± 18.2 years) were processed directly after surgery.
Blood was collected from the vena brachialis, and erythrocytes were lysed as described above. After 10 min of incubation, samples were centrifuged at 350g for 10 min at 20 °C. For isolation of a purified neutrophil fraction, density gradient centrifugation was performed. Five milliliters of Ficoll 1.077 (Sigma-Aldrich) was layered on 5 ml Ficoll 1.119 (Sigma-Aldrich), and 20 ml of whole blood diluted 1:2 with PBS was carefully layered on the Ficoll 1.077. Samples were centrifuged at 350g for 20 min with low acceleration and brake. The neutrophil layer was isolated by careful aspiration and washed with PBS. Isolated cells were resuspended in MACS buffer.
A total of 1 × 10^6 cells were incubated with 10 µl of the emulsion over a period of 80 min at 37 °C. At distinct time points, 50 µl of the samples were transferred into 2 ml of ice-cold MACS buffer and analyzed for rhodamine fluorescence by flow cytometry.

[2] = Cryo-transmission electron microscopy of PFCs (diameter, liposomes); assay type: physicochemical; parameters: key: % of PFCs per 25 nm diameter class in cryo-TEM images; conditions: cryo-TEM size distribution; panel C raw data, single replicates #1-#3
Experimental: PFCs were diluted with sample buffer to minimize particle aggregation and therefore enable proper size measurements, which were carried out as previously described.
Extended Data Fig. 8 Physicochemical properties and cellular uptake of ^hNPPFCs. a, Cellular uptake of ^hNPPFCs by human monocyte subsets and neutrophils: Human immune cells isolated from the blood of healthy volunteers were incubated with ^hNPPFCs. Subsequently, cells were stained with CD11b, CD14 and CD16 to differentiate between neutrophils (red), classical monocytes (gray) and non-classical monocytes (blue) and the cells were analyzed by flow cytometry. The cellular uptake of ^hNPPFCs was determined under unstimulated conditions (top) and after treatment with 1 µg/ml LPS (bottom). b, Physicochemical properties of the generated nanotracers: Characterization of size, size distribution and ζ potential of ^MalPFCs and targeting PFCs (^hNPPFCs, ^ConPFCs) by dynamic light scattering (DLS). The rhodamine fluorescence signal of the PCS was determined by IVIS imaging and the ^19F content by ^19F MRI. c-e, Cryo transmission electron microscopy of the generated nanotracers: c, Cryo transmission electron microscopy (cryo-TEM) of ^hNPPFCs and ^ConPFCs. Graphs: The diameter of the PFCs was determined manually from three images categorized into 25 nm groups. […] Data are derived from three images for ^hNPPFCs and ^ConPFCs each. d, Box plot (box and whiskers; min to max) of the diameter of ^ConPFCs/^hNPPFCs calculated from cryo-TEM images. e, Relative amount of liposomes (%) in individual cryo-TEM images. The number of PFCs and liposomes was manually determined (n = 4/5 images). Red arrows in the cryo-TEM images indicate liposomes. Data are mean values ± SD of n = 5-6 (a), n = 3-6 (b), n = 3 (c), n = 3 (d) and n = 6 (e) independent experiments; *** = p < 0.001, verified by one-way ANOVA (a). Source data

human neutrophils = assay: Cell surface activation markers CD11b, CD63, CD66b on human neutrophils; assay type: cell-based; conditions: 50 µl ml^−1 hNPPFCs or 1 µg ml^−1 LPS, 1 h, 37 °C
Experimental: A total of 1 × 10^6 isolated human neutrophils were incubated with 50 µl ml^−1 ^hNPPFCs, 1 µg ml^−1 LPS or only DMEM for 1 h at 37 °C followed by intense washing with MACS buffer. Afterward, 1 × 10^5 cells were transferred into 96-well plates and stained for CD11b and CD63 (eBioscience, clone HSC6) or CD66b (eBioscience, clone G10F5) for 20 min at 4 °C. After two washing steps with MACS buffer, cells were analyzed by flow cytometry. A total of 1 × 10^5 isolated murine neutrophils were transferred into a 96-well plate and stained for CD11b, CD62L and CD63 for 20 min at 4 °C. After two washing steps with MACS buffer, cells were analyzed by flow cytometry.

[3] = tested on: circulating lymphocytes, monocytes and neutrophils; assay: In vivo mNPPFC uptake by circulating immune cells 1 h after injection (Matrigel-LPS or PBS); parameters: species or system mouse; in vivo uptake by circulating lymphocytes, Ctrl, raw data / in vivo uptake by circulating lymphocytes, LPS, raw data / in vivo uptake by circulating monocytes, Ctrl, raw data / in vivo uptake by circulating monocytes, LPS, raw data / in vivo uptake by circulating neutrophils, Ctrl, raw data / in vivo uptake by circulating neutrophils, LPS, raw data: unit not given here
Experimental: To induce defined inflammatory foci, we adopted a recently developed model of localized subcutaneous inflammation. To this end, ice-cold Matrigel (Corning) was doped with LPS (1 µg µl^−1; Salmonella typhimurium, Sigma-Aldrich) and subcutaneously (s.c.) implanted into the neck of the mice. Twenty-four hours after implanting the plug, neutrophils were isolated from the blood and incubated ex vivo with ^mNPPFCs or ^ConPFCs. In separate experiments, 24 h after implantation, ^mNPPFCs or ^ConPFCs were injected intravenously, and immune cells were isolated from the blood. In further experiments, 1 d after plug injection, mice received 1 mmol per kg BW ^mNPPFCs, and, 24 h later, the bone marrow was analyzed by ^1H/^19F MRI. Thereafter, mice were killed, and neutrophils were isolated from the bone marrow for determination of cell numbers. In each case, immune cells were analyzed by flow cytometry.
Mice were kept in anesthesia (1.5% isoflurane) on a warming plate, and 1 mmol per kg BW ^mNPPFCs or ^ConPFCs were injected i.v. into the tail vein. One hour after injection, blood was collected from the vena cava, and immune cells were isolated. For in vivo uptake studies in the bone marrow, mice were treated as described above and killed 2 h later to isolate neutrophils from the bone marrow and analyzed by flow cytometry.

[4] = mouse, Ctrl (PBS), 1 h after injection, single animals #1-#5
[5] = mouse, Matrigel-LPS, 1 h after injection, single animals #1-#3

hNPPFCs: PEGylated rhodamine-labeled perfluorocarbon nanoemulsion coupled with human neutrophil-specific peptide hNP (carboxyfluorescein-DLVTSKLQVGGGC; also: C-terminal Cys coupled via maleimide-PEG2000-DSPE to rhodamine-labelled perfluorocarbon nanoemulsion)
uptake by neutrophils, STEMI - hNPPFCs, raw data ([1]; STEMI patients, time 0, single samples #1-#5): 84.1 and 69.4 and 87.5 and 76.7 and 84.9
cellular uptake by neutrophils from patients with STEMI versus healthy volunteers ([1]; blood obtained within the first 24 h after MI, flow cytometry and 19F MRI): substantially stronger cellular uptake
share of particles in size class 0-25 [2]: 0
share of particles in size class 25-50 [2]: 26.2295 and 23.5714 and 28.5714
share of particles in size class 50-75 [2]: 45.9016 and 51.4286 and 42.0635
share of particles in size class 75-100 [2]: 21.3115 and 20 and 23.8095
share of particles in size class 100-125 [2]: 6.557 and 5 and 5.556
share of particles in size class 125-150 [2]: 0
share of particles in size class 150-175 [2]: 0
share of particles in size class 175-200 [2]: 0
expression of CD11b, CD63 and CD66b on human neutrophils (human neutrophils): did not affect expression of these proteins

mNPPFCs: PEGylated rhodamine-labeled perfluoro-15-crown-5 ether nanoemulsion (maleimide PFCs) coupled with murine neutrophil-specific peptide mNP (carboxyfluorescein-DFYKPMPNLRITGGGC([maleimide‑PEG2000‑DSPE-rhodamine‑labelled PEGylated perfluoro‑15‑crown‑5 ether nanoemulsion]); reading uncertain; also: printed as DFYKPMPNLRIT-GGG-C)
incorporation into circulating neutrophils from LPS-challenged versus healthy mice ([3]; 1 h after intravenous application): much stronger
in vivo uptake by circulating lymphocytes, Ctrl, raw data [3, 4]: 51.1 and 39.2 and 30.6 and 43.1 and 40.6
in vivo uptake by circulating monocytes, Ctrl, raw data [3, 4]: 176 and 127 and 129 and 184 and 145
in vivo uptake by circulating neutrophils, Ctrl, raw data [3, 4]: 400 and 394 and 676 and 677 and 545
in vivo uptake by circulating lymphocytes, LPS, raw data [3, 5]: 38.8 and 38.9 and 26.2
in vivo uptake by circulating monocytes, LPS, raw data [3, 5]: 150 and 223 and 453
in vivo uptake by circulating neutrophils, LPS, raw data [3, 5]: 3695 and 4794 and 6465
